The results in this text go back to patent US7462630B2, “Diarylalkene derivatives and novel diarylalkane derivatives” (Ajinomoto Co., Inc., priority 2001, dated 2008).

One assay has as its target T1, N-type calcium channel (Homo sapiens, UniProt Q00975).
T1 construct: host or cells: IMR-32 human neuroblastoma cells, differentiated with dibutyl cAMP and 5-bromodeoxyuridine
The experiment in a line: Antagonistic activity on N-type calcium channel (fluorescence dye method, KCl-stimulated intracellular calcium change in IMR-32 cells with 1 μM Nifedipine). It counts as cell-based. The note with it: 10 μM test compound, 60 mM KCl stimulation, read-out: Antagonistic activity on N-type calcium channels at 10 μM inhibition rate (%). Here is the method:
Human neuroblastoma cells IMR-32 were obtained from ATCC (American Type Culture Collection). The medium used was a Phenol Red-free Eagle minimum essential medium containing earle's salts (GIBCO) supplemented with 2 mM of L-glutamine (GIBCO), 1 mM of sodium pyruvate (pH 6.5) (GIBCO), antibiotic/antimycotic mixture (GIBCO) and 10% fetal calf serum (Cell Culture Technologies). Three ml of 1×10^5 cells/ml IMR-32 cells were spread on the glass bottom of a dish (Iwaki Glsss Co., Ltd.) having a diameter of 35 mm which had been treated with poly-L-lysin (SIGMA) and collagen (COLLAGEN VITROGEN 100; Collagen Co.). After the culture for 1 day, 1 mM (final concentration) of dibutyl cAMP and 2.5 μM (final concentration) of 5-bromodeoxyuridine (SIGMA) were added. After the culture for additional 10 to 14 days, the cells were subjected to the activity determination.
The medium for IMR-32 cells thus prepared was replaced with 1 ml of Phenol Red-free Eale minimum essential medium (GIBCO) containing 2.5 μM fura-2/AM (Dojin Kagaku, Co.) and earle's salts supplement, and the incubation was conducted at 37° C. for 30 minutes. Then the medium was replaced with a recording medium (20 mM of HEPES-KOH, 115 mM of NaCl, 5.4 mM of KCl, 0.8 mM of MgCl2, 1.8 mM of CaCl2 and 13.8 mM of D-glucose). Antagonistic activity on N-type calcium channel was determined and analyzed using a fluorescence microscope (Nikon Corporation) and an image analysis device ARGUS 50 (Hamamatsu Photonics). In particular, a recording medium (20 mM of HEPES-KOH, 115 mM of NaCl, 5.4 mM of KCl, 0.8 mM of MgCl2, 1.8 mM of CaCl2 and 13.8 mM of D-glucose) containing 1 μM of Nifedipine was given to the cells by reflux by a Y-tube method for 2 minutes. Then a stimulating agent containing 60 mM of potassium chloride was rapidly given by the Y-tube method. The calcium concentration change in the cells in this step was shown as the N-type calcium channel activity. Then stimulating agents containing 60 mM of potassium chloride and 0.1, 1 or 10 μM of the test compound were successively and rapidly given to the cells by the Y-tube method to determine the change in the intracellular calcium concentration. The antagonistic activity on N-type calcium channel was calculated from the inhibition rate (%) at a concentration of 10 μM.
For orientation: Calcium assays in cells follow changes in intracellular calcium, usually with a dye or a luminescent sensor.

The next assay concerns the target T2, L-type calcium channel (Rattus norvegicus, UniProt P22002).
T2 construct: relaxation response against the KCl-induced contraction of isolated rat thoracic aorta was employed; from tissue; host or cells: endothelium-denuded thoracic aorta rings of Wistar rat
The experiment in a line: Antagonistic activity on L-type calcium channel (relaxation response against KCl-induced contraction of isolated rat thoracic aorta). The conditions noted are these: read-out: Antagonistic action on L-type calcium channels pIC50 (converted). Here is the method:
The antagonistic activity of the new diarylalkene derivatives and diarylalkane derivatives of the present invention to inhibit L-type calcium channel was determined by the following method in which the relaxation response against the KCl-induced contraction of isolated rat thoracic aorta was employed.
The slips of thoracic aorta isolated from a Wistar rat were used. The aorta was cut to obtain ring-shaped samples having a width of about 3 mm. The endothelial cells of the samples were mechanically removed. The samples were suspended in a strain gage in Tyrode's solution (158.3 mM of NaCl, 4.0 mM of KCl, 1.05 mM of MgCl2, 0.42 mM of NaH2PO4, 10 mM of NaHCO3, 2 mM of CaCl2 and 5 mM of glucose) in which a gaseous mixture of O2 (95%) and CO2 (5%) was introduced. A static tension of 2 g was applied thereto. The tension of the blood vessel was amplified with a transducer and a tension amplifier (EF-601G; Nihon Koden Corporation) and recorded with a multi-pen recorder (Rikadenki Kogyo Co., Ltd.). The experiments were conducted at 37° C.
After the tension had been stabilized, the nutrient solution in the sample tank was replaced with High K^+ Tyrode's solution (112.3 mM of NaCl, 50 mM of KCl, 1.05 mM of MgCl2, 0.42 mM of NaH2PO4, 10 mM of NaHCO3, 2 mM of CaCl2 and 5 mM of glucose) to conduct the contraction reaction. Thirty minutes after, the solution in the sample tank was replaced with the normal Tyrode's solution. The solution in the sample tank was again replaced with the High K^+ Tyrode's solution and the contraction reaction was observed. After attaining the maximum contraction reaction, the test compound was cumulatively added at intervals of 90 minutes to attain concentrations of 10^−9, 10^−8, 10^−7 and 10^−6 M. The inhibitory rate of the test compound against the maximum contraction response was employed as the index of the antagonistic activity on L-type calcium channels.
The value of pIC50 indicates the antagonistic activity of the test compound, i. e. the negative logarithm of the concentration of the test compound necessitated for the 50% inhibition.

T2 sequence (P22002 whole entry): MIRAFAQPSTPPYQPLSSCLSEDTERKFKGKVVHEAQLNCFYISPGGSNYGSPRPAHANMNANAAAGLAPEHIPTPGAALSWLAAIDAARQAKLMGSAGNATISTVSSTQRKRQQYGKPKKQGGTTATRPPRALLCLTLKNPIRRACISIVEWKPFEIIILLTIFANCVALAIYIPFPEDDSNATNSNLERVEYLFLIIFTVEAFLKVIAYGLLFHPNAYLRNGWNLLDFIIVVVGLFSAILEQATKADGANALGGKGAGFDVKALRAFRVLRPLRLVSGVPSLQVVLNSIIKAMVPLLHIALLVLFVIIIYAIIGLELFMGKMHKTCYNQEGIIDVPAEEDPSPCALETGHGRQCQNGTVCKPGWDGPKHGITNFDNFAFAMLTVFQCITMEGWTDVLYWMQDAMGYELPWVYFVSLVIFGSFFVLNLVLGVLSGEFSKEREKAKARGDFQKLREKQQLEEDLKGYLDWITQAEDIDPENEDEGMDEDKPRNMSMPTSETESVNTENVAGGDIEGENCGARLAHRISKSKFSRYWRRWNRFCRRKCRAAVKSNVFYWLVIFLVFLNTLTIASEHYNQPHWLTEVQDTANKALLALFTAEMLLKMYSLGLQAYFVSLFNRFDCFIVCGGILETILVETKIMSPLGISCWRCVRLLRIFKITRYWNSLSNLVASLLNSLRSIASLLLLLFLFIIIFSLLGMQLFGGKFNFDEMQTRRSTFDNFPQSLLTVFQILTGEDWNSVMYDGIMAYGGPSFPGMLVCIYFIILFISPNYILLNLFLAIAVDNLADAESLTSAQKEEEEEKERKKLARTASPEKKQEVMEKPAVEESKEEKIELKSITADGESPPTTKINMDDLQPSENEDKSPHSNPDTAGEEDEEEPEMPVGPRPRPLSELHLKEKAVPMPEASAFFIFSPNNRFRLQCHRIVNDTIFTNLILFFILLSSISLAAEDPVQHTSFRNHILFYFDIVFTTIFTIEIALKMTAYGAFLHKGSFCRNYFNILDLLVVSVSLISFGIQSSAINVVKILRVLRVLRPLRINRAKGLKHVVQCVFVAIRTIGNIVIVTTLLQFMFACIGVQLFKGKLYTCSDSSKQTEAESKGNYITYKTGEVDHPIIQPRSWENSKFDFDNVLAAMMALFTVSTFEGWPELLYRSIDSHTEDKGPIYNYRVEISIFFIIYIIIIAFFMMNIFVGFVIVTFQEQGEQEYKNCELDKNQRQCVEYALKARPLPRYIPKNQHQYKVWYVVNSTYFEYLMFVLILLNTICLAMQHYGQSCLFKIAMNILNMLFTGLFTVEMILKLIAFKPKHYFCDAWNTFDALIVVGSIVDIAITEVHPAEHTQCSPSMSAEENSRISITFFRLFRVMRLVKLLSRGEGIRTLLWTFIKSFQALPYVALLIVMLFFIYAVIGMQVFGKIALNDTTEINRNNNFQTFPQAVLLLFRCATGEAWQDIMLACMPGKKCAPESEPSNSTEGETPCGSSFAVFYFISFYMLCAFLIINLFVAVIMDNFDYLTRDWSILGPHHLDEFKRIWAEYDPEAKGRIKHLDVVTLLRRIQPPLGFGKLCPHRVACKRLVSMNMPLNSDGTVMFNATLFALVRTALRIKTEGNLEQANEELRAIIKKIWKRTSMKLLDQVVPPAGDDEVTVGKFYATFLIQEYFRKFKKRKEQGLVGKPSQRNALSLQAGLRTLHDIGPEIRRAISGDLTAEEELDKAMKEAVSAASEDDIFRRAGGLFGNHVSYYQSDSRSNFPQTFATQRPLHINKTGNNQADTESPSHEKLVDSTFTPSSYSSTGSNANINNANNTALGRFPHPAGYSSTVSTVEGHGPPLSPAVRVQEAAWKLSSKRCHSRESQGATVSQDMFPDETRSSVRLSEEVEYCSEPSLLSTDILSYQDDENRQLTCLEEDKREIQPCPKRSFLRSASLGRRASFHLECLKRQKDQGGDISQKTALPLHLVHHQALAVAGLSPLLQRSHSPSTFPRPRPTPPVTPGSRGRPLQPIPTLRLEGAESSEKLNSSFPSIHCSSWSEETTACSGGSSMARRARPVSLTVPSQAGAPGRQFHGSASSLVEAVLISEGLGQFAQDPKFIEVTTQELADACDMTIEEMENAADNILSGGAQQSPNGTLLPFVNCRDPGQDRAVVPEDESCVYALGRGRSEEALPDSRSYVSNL
T2 sequence (P54287 whole entry partner): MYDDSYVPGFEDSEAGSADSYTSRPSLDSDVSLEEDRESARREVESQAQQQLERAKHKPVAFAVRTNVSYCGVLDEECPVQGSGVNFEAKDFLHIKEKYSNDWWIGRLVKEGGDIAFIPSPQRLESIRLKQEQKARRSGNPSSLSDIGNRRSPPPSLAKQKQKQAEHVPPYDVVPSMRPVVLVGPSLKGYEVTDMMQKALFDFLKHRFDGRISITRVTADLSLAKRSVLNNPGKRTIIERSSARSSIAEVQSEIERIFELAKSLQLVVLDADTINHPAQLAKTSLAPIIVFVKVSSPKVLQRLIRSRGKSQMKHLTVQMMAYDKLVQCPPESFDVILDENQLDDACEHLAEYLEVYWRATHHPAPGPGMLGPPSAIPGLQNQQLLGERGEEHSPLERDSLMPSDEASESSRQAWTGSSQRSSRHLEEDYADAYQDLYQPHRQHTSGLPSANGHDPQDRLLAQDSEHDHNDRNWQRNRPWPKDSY
T2 sequence (P54290 25-944 partner limits assumed): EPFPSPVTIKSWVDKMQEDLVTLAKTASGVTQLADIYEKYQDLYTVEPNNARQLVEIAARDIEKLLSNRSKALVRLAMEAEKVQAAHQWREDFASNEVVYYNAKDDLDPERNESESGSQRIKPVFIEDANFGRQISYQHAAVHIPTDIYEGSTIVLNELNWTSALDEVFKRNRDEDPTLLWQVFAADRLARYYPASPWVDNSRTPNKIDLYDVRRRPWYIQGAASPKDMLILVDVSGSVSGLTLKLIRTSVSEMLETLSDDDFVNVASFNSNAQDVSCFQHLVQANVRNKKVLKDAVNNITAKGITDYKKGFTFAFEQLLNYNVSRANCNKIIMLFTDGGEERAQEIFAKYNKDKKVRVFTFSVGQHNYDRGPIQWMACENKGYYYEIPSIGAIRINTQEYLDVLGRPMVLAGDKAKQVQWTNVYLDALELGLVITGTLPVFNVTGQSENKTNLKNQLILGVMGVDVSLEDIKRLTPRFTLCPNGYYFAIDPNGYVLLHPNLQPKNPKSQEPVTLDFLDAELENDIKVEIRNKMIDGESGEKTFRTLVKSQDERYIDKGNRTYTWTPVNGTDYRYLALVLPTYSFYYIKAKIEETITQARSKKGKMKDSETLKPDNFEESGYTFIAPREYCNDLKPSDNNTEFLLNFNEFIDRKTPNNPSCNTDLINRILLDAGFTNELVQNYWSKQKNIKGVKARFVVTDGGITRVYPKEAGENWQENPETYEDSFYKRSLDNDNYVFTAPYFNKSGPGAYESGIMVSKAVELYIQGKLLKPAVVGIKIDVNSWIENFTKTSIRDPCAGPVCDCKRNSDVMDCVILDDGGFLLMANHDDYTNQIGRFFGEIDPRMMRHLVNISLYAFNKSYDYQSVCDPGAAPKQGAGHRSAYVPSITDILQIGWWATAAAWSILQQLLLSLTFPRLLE
T2 sequence (P54290 945-1091 partner limits assumed): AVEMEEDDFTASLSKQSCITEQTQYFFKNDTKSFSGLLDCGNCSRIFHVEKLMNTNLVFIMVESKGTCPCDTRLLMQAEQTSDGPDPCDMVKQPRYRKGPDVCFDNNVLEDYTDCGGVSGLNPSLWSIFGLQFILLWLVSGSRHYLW

With `CC(C)(C)OC(=O)NCC(=O)N1CCC(=C2c3ccccc3CSc3ccccc32)CC1` [Example 24, t-butyl 2-(4-dibenzo[b,e]thiepin-11(6H)-ylidene-1-piperidinyl)-2-oxoethylcarbamate], the inhibition – broadly, the change of the read-out against control, counted positive when it falls – at 10 µM on N-type calcium channel was determined as 78%. Moreover, the IC50 on L-type calcium channel is 1000 nM.
On to `CC(C)(C)OC(=O)NCC(=O)N1CCC(=C2c3ccccc3C=Cc3ccccc32)CC1` [Example 1, t-butyl 2-[4-(5H-dibenzo[a,d][7]annulen-5-ylidene)-1-piperidinyl]-2-oxoethylcarbamate], for which the inhibition at 10 µM at N-type calcium channel turned out to be 67%. Besides, the IC50 at L-type calcium channel was 1000 nM.
The matching figures for `CC(C)(C)OC(=O)N[C@@H](CO)CC(=O)N1CCC(=C2c3ccccc3C=Cc3ccccc32)CC1` [Example 68, (R)-t-butyl 3-[4-(5H-dibenzo[a,d][7]annulen-5-ylidene)-1-piperidinyl]-1-(hydroxymethyl)-3-oxopropylcarbamate]: 82% and 398 nM.
For the molecule `CC(C)(C)OC(=O)NCC(=O)N1CCC(=C2c3ccccc3CCc3ccccc32)CC1` [Example 16, t-butyl 2-[4(10,11-dihydro-5H-dibenzo[a,d][7]annulen-5-ylidene)-1-piperidinyl]-2-oxoethyl carbamate], the inhibition at 10 µM at N-type calcium channel came out at 75%. For the same molecule, on L-type calcium channel, the IC50 was 1260 nM.
In the same order, the values of `CC(C)(C)C(=O)N[C@H](CO)CCC(=O)N1CCC(=C2c3ccccc3CCc3ccccc32)CC1` [Example 78] are 84% and 2510 nM.
Consider `CC(C)(C)OC(=O)N[C@@H](CO)CC(=O)N1CCC(=C2c3ccccc3Sc3ccccc32)CC1` [Example 76, tert-butyl (1R)-1-(hydroxymethyl)-3-oxo-3-[4-(9H-thioxanthen-9-ylidene)-1-piperidinyl]propylcarbamate], for which, at N-type calcium channel, the inhibition at 10 µM came out at 85%. Further, at L-type calcium channel, the IC50 was 794 nM.
On to `CC(C)(C)C(=O)N[C@@H](CO)CCC(=O)N1CCC(=C2c3ccccc3C=Cc3ccccc32)CC1` [Example 72, (R)-N-[4-[4-(5H-dibenzo[a,d][7]annulen-5-ylidene)-1-piperidinyl]-1-(hydroxylmethyl)-4-oxobutyl]-2,2-dimethylpropanamide], for which, at N-type calcium channel, the inhibition at 10 µM stood at 81%. Further, the IC50 at L-type calcium channel is 794 nM.
In the same order, the values of `CCOC(=O)N[C@@H](CO)CC(=O)N1CCC(=C2c3ccccc3C=Cc3ccccc32)CC1` [Example 73, (R)-ethyl3-[4-(5H-dibenzo[a,d][7]annulen-5-ylidene)-1-piperidinyl]-1-(hydroxymethyl)-3-oxopropylcarbamate] are 75% and 2000 nM.
In the same order, the values of `CC(C)(C)OC(=O)NCCCNC(=O)C=C1c2ccccc2C=Cc2ccccc21` [Example 41, t-butyl 3-[(5H-dibenzo[a,d][7]annulen-5-ylidenacetyl)amino]-propylcarbamate] are 76% and 1260 nM.
For the molecule `CC(C)(C)NC(=O)CCC(=O)N1CCC(=C2c3ccccc3C=Cc3ccccc32)CC1` [Example 9, N-(t-butyl)-4-[4-(5H-dibenzo[a,d][7]annulen-5-ylidene)-1-piperidinyl]-4-oxobutanamide], the inhibition at 10 µM at N-type calcium channel was determined as 83%. Moreover, on L-type calcium channel, the IC50 was 501 nM.
